Data reported in US20240374763A1, “DIAGNOSIS AND MONITORING USING EXTRADOMAIN-B FIBRONECTIN TARGETED PROBES” (Case Western Reserve University, priority 2020, published 2024).
No end group written: not given here.

How the values were obtained:
[1] = test system: DLD-1 tumors; test: MRMI of EDB-FN with MT218, DLD-1 xenografts; type: in vivo, mice; conditions: 40 μmol/kg MT218, 25 min post-injection
Procedure: (§1) Nude athymic mice (6-week-old nu/nu females) were purchased from The Jackson Laboratory (Bar Harbor, […]) and housed in the Animal Facility at CWRU. All the animal experiments were performed according to the protocol approved by the IACUC of CWRU. For assessment of drug resistance, 2 drug-resistant and 2 non-drug-resistant models were set up. About 3-4×10^6 DLD-1, RKO, DLD1-DR, and RKO-DR cells suspended in Matrigel-PBS mixture (1:1) were subcutaneously injected in the left flanks of nude mice (100 μL per mouse, 5 mice per group×4 models=20 mice). After 9 days when the tumors reached 100-200 mm3, MRMI was performed on the 4 xenograft models with 40 μmol/kg dose of MT218. The animals were then euthanized, and the tumors were harvested for post-mortem histology and IHC.
MT218 was synthesized as previously described. Ayat, N. R., et al., ACS Med Chem Lett, 2018. 9(7): p. 730-735. Briefly, click reaction between alkynyl-ZD2 and N3-Gd(HP-DO3A) was performed in the presence of CuSO4 and ascorbate at room temperature, followed by FLASH chromatography purification and validation of MT218 by MALDI-TOF mass spectrometry (m.w. 1443). […] Contrast-to-noise ratios (CNRs) were calculated as (mean tumor intensity—mean muscle intensity)/standard deviation of noise. […]

[2] = test system: DLD1-DR tumors; test: MRMI of EDB-FN with MT218, DLD1-DR xenografts; type: in vivo, mice
Procedure: as §1
MT218 was synthesized as previously described. Ayat, N. R., et al., ACS Med Chem Lett, 2018. 9(7): p. 730-735. Briefly, click reaction between alkynyl-ZD2 and N3-Gd(HP-DO3A) was performed in the presence of CuSO4 and ascorbate at room temperature, followed by FLASH chromatography purification and validation of MT218 by MALDI-TOF mass spectrometry (m.w. 1443). For assessment of drug resistance and therapeutic monitoring, MRMI was performed in a 3T MRS 3000 scanner (MR Solutions, Surrey, UK) with a mouse short quad coil. The mice were anesthetized with isofluorane and tail vein catheter was setup. T1-weighted MR images were obtained before (pre-contrast) and 25 min after injection (post-contrast) of 40 μmol/kg dose of MT218 [ZD2-N3—Gd(HP-DO3A)]. The following two sequences were used with respiratory gating: axial fast spin echo (FSE) (TR=305 ms, TE=11 ms, FA=90°, FOV=40 mm×40 mm, slice thickness=1 mm, slice number=15, Nav=2, matrix=256×256) and coronal FSE (TR=305 ms, TE=11 ms, FA=90°, FOV=90 mm×90 mm, slice thickness=1 mm, slice number=20, Nav=1, matrix=248×512). […] Contrast-to-noise ratios (CNRs) were calculated as (mean tumor intensity—mean muscle intensity)/standard deviation of noise. […]

[3] = Relaxivity measurements; type: physicochemical
Procedure: The T1 and T2 values of MT218 and Gd(HP-DO3A) solutions were determined using a 3T MRS 3000 scanner (MR Solutions, Guildford, UK). Solutions of MT218 were prepared at concentrations of 0, 0.25, 0.5, 1, and 2 mM in DPBS buffer (Gibco, Gaithersburg, MD). T1 values were measured using an inversion recovery-fast low angle shot (IR-FLASH) sequence (i=10 ms, TE=4 ms, FA=8°, echoes/frames=128, FOV=40 mm×40 mm, slice thickness =2 mm, number of averages=1, time delay=4000 ms, sample period=200, matrix=256×128). T2 values were obtained using a multi-echo multi-slice (MEMS) sequence (TE=15 ms, […], echoes=10, FOV: 40 mm×40 mm, slice thickness=1 mm, number of averages=1, matrix=256×192). The r1 and r2 relaxivities were calculated from the slopes of 1/T1 and 1/T2 vs. Gd concentration plots, respectively.

[4] = test system: CAL27 tumors; test: MRMI of OSCC flank xenografts, CAL27; type: in vivo, mice; conditions: MT218 0.04 mmol/kg
Procedure: (§2) Animal experiments were performed under an animal protocol approved by the Institutional Animal Care and Use Committee (IACUC) at Case Western Reserve University (CWRU, Cleveland, OH, USA). Female 4-week-old athymic nude mice purchased from the Jackson Laboratory (Bar Harbor, ME, USA) were housed in the Animal Core Facility at CWRU. Anesthetized mice were subcutaneously inoculated in the right flank with 4×10^6 GFP/luciferase-expressing OSCC cells (n=5 per cell line) in 100 μL of a 1:1 mixture of Matrigel HC (Corning) and DPBS. Tumor size was monitored with caliper measurements. After 4 weeks of growth, tumors were sufficiently large for MRI experiments.
MRI experiments were performed with a 3T MRS-3000 system (MR Solutions, Surrey, UK). Tumor-bearing mice were imaged before and at 10, 20, and 30 minutes post-injection of the targeted contrast agent, MT218 (Molecular Theranostics, LLC, Cleveland, OH, USA), at a dose of 0.04 mmol/kg using a T1-weighted fast spin-echo axial sequence with respiratory gating (TR=305 ms, TE=11 ms, FOV=40×40 mm, slice thickness=1 mm, number of slices=15, Nav=2, matrix=256×248). […]
(§3) Images were exported in DICOM format and analyzed using FIJI. Contrast-to-noise ratio (CNR) for each time point was calculated as the difference between the mean tumor intensity and the mean muscle intensity, divided by the standard deviation of noise.

[5] = test system: HSC3 tumors; test: MRMI of OSCC flank xenografts, HSC3; type: in vivo, mice; conditions: MT218 0.04 mmol/kg
Procedure: as §2
MRI experiments were performed with a 3T MRS-3000 system (MR Solutions, Surrey, UK). Tumor-bearing mice were imaged before and at 10, 20, […] spin-echo axial sequence with respiratory gating (TR=305 ms, TE=11 ms, FOV=40×40 mm, slice thickness=1 mm, number of slices=15, Nav=2, matrix=256×248). This protocol was repeated on the same mice 2 days later using the untargeted clinical agent gadoteridol at the clinical dose of 0.10 mmol/kg.
as §3

[6] = test system: SCC4 tumors; test: MRMI of OSCC flank xenografts, SCC4; type: in vivo, mice; conditions: MT218 0.04 mmol/kg
Procedure: as §2
MRI experiments were performed with a 3T MRS-3000 system (MR Solutions, Surrey, UK). […] This protocol was repeated on the same mice 2 days later using the untargeted clinical agent gadoteridol at the clinical dose of 0.10 mmol/kg.
as §3

[7] = test system: C4-2-DR tumors; test: MRMI with MT218, C4-2-DR xenografts; type: in vivo, mice; conditions: 0.04 mmol Gd/kg, 20 min post-injection
Description: Xenograft models were established by subcutaneous flank injections in athymic nu/nu mice for the 4 prostate cancer cells and tested with MRMI using 0.04 mmol Gd/kg of MT218.

[8] = DLD1-DR over DLD-1 tumors, 40 μmol/kg MT218

ZD2-N3-Gd(HP-DO3A) (TVRTSAD; also: conjugated to Gd(HP-DO3A) by click reaction of alkynyl-ZD2 with N3-Gd(HP-DO3A), residue of attachment not given here, Gd complex) [MT218, EDB-FN-targeted MRI contrast agent; ZD2 peptide conjugated to the clinical macrocyclic agent Gd(HP-DO3A)]
increase in CNRs over the pre-contrast [1]: 1.53 fold | higher CNRs over the non-resistant tumors [2, 8]: 2.2 fold | increase in CNR over the non-resistant tumors [2, 8]: 120% | higher CNRs over pre-contrast ([2]; DLD1-DR tumors, 40 μmol/kg MT218, 25 min post-injection): 3.3 fold | T1 relaxivity ([3]; at 3T (Example 1)): 6.13 mM⁻¹ s⁻¹ | T1 relaxivity ([3]; at 3 T, DPBS buffer): 6.07 ± 1.13 mM⁻¹ s⁻¹ | T2 relaxivity ([3]; at 3 T, DPBS buffer): 8.20 ± 0.18 s⁻¹ mM⁻¹ | average maximum enhancement (CNR) [4]: 1.80±0.17 | average maximum enhancement (CNR) [5]: 2.61±0.17 | average maximum enhancement (CNR) [6]: 3.81±0.25 | increase of CNR [7]: 6 fold
